Experimental findings from patent US5530126A, “Process for the preparation of substituted 6-(pyrazol-3yl)-1,4-benzoxazin-3-ones” (Monsanto Company, priority 1994, dated 1996) are described below.

Common to all, as to assay type: in vivo
The subject of experiment [1] is resistant broadleaf weeds such as pigweed, cocklebur, velvetleaf and hemp sesbania. Description: Control of resistant broadleaf weeds in crops. The note with it: in various crops such as corn, soybean and nuts and in forestry.
Experiment [2] deals with Indian Mustard. Kind of experiment: Post-emergence herbicide test. Particulars: Brassica juncea, 1.12 kg/ha, read-out: % plant inhibition (Inmu). The method, boiled down:
(§1)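 Percent growth inhibition against untreated plants, assessed roughly 11 days (range 10–14) after treatment and in some cases at about 25 days. Foliar application was to two- to three-week-old greenhouse plants at 1870 L/Ha spray volume.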

The subject of experiment [3] is Morningglory. Kind of experiment: Post-emergence herbicide test. The note with it: Ipomoea, 1.12 kg/ha, read-out: % plant inhibition (Mogl). In short, it runs like this: as §1
For experiment [4], the system named is Seedling johnsongrass. Description: Post-emergence herbicide test. Particulars: Sorghum halepense, 1.12 kg/ha, read-out: % plant inhibition (Sejg). The method, boiled down: as §1
The subject of experiment [5] is Downy Brome. Kind of experiment: Post-emergence herbicide test. The note with it: Bromus tectorum, 1.12 kg/ha, read-out: % plant inhibition (Dobr). In short, it runs like this: as §1
Experiment [6] has as its system Barnyardgrass. Kind of experiment: Post-emergence herbicide test. The note with it: Echinochloa crus-galli, 1.12 kg/ha, read-out: % plant inhibition (Bygr). The method, boiled down: as §1
Experiment [7] has as its system Annual bluegrass. Description: Post-emergence herbicide test. The note with it: 1.12 kg/ha, read-out: % plant inhibition (Anbg). The method, boiled down: as §1
The test system of experiment [8] is Yellow nutsedge. Kind of experiment: Post-emergence herbicide test. Particulars: Cyperus, 1.12 kg/ha, read-out: % plant inhibition (Yens). The method, boiled down: as §1
The subject of experiment [9] is Velvetleaf. Kind of experiment: Post-emergence herbicide test. The note with it: Abutilon theophrasti, 1.12 kg/ha, read-out: % plant inhibition (Vele). In short, it runs like this:
as §1

Experiment [10] has as its system Wild buckwheat. Description: Post-emergence herbicide test. The note with it: Fallopia convolvulus, 1.12 kg/ha, read-out: % plant inhibition (Wibw). In short, it runs like this: as §1
Experiment [11] deals with Cocklebur. Kind of experiment: Post-emergence herbicide test. The note with it: Xanthium strumarium, 1.12 kg/ha, read-out: % plant inhibition (Cobu). In short, it runs like this: as §1
Experiment [12] concerns Indian Mustard. Kind of experiment: Pre-emergence herbicide test. The note with it: Brassica juncea, 1.12 kg/ha, read-out: % plant inhibition (Inmu). The method, boiled down: (§2)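 Known dose of active, dissolved or suspended in acetone or water, delivered onto seed bed prior to emergence and buried under untreated topsoil. Greenhouse incubation with watering from below. Percentage inhibition rated 10-14 days after seeding.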

The test system of experiment [13] is Morningglory. Description: Pre-emergence herbicide test. Particulars: Ipomoea, 1.12 kg/ha, read-out: % plant inhibition (Mogl). The method, boiled down: as §2
In experiment [14] the test system is Seedling johnsongrass. Description: Pre-emergence herbicide test. Particulars: Sorghum halepense, 1.12 kg/ha, read-out: % plant inhibition (Sejg). In short, it runs like this: as §2
For experiment [15], the system named is Downy Brome. Description: Pre-emergence herbicide test. Particulars: Bromus tectorum, 1.12 kg/ha, read-out: % plant inhibition (Dobr). In short, it runs like this:
as §2

Experiment [16] deals with Barnyardgrass. Kind of experiment: Pre-emergence herbicide test. The note with it: Echinochloa crus-galli, 1.12 kg/ha, read-out: % plant inhibition (Bygr). The method, boiled down: as §2
Experiment [17] concerns Annual bluegrass. Kind of experiment: Pre-emergence herbicide test. The note with it: 1.12 kg/ha, read-out: % plant inhibition (Anbg). In short, it runs like this:
as §2

In experiment [18] the test system is Yellow nutsedge. Description: Pre-emergence herbicide test. The note with it: Cyperus, 1.12 kg/ha, read-out: % plant inhibition (Yens). The method, boiled down: as §2
The test system of experiment [19] is Velvetleaf. Kind of experiment: Pre-emergence herbicide test. Particulars: Abutilon theophrasti, 1.12 kg/ha, read-out: % plant inhibition (Vele). In short, it runs like this: as §2
Experiment [20] deals with Wild buckwheat. Description: Pre-emergence herbicide test. The note with it: Fallopia convolvulus, 1.12 kg/ha, read-out: % plant inhibition (Wibw). In short, it runs like this: as §2
In experiment [21] the test system is Cocklebur. Kind of experiment: Pre-emergence herbicide test. The note with it: Xanthium strumarium, 1.12 kg/ha, read-out: % plant inhibition (Cobu). The method, boiled down: as §2

For orientation: inhibition means how much of the control response was suppressed.

For `C#CCN1C(=O)COc2cc(F)c(-c3nn(C)c(C(F)(F)F)c3Cl)cc21` [Compound 446, 6-(4-Chloro-1-methyl-5-(trifluoromethyl)-1H-pyrazol-3-yl)-7-fluoro-4-(2-propynyl)-2H-1,4-benzoxazin-3-(4H)-one], the “control of resistant broadleaf weeds” value in [1] is given as “outstanding control”. Besides, the inhibition at 1120 g/ha is 100% in the experiment on Indian Mustard [2]; 100% in the experiment with Morningglory [3]; 90% in the experiment on Seedling johnsongrass [4]; 100% in the experiment with Downy Brome [5]; 100% in the experiment with Barnyardgrass [6]; 100% in the experiment with Annual bluegrass [7]. The inhibition at 1120 g/ha with Yellow nutsedge [8] was found to be 40%; in the experiment on Velvetleaf [9], 100%; in the experiment with Wild buckwheat [10], 100%; in the experiment on Cocklebur [11] it was 100%; in the experiment on Indian Mustard [12] it was 100%; in the experiment on Morningglory [13], 100%. For the same compound, the inhibition at 1120 g/ha in the experiment on Seedling johnsongrass [14] turned out to be 80%; in the experiment on Downy Brome [15] it was 90%; in the experiment with Barnyardgrass [16], 80%; in the experiment with Annual bluegrass [17] it was 100%; in the experiment on Yellow nutsedge [18], 60%; in the experiment on Velvetleaf [19] it was 90%. The inhibition at 1120 g/ha in the experiment on Wild buckwheat [20] and in the experiment with Cocklebur [21] was 100% throughout.
